Assay results taken from PubChem BioAssay (NCI).
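Protocol summary: plate cells (96-well), add compound at 5 concentrations, incubate 48 h, interpolate endpoints linearly. GI50 = concentration required for 50% inhibition of growth. TGI: concentration producing complete growth inhibition.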

Tests used:
Assay in all cases: NCI-60 cell line screen, 48 h
786-0 renal = tested on: 786-0 renal
A498 renal = tested on: A498 renal
A549 NSCLC = tested on: A549 NSCLC
ACHN renal = tested on: ACHN renal
BT-549 breast = tested on: BT-549 breast
CAKI-1 renal = tested on: CAKI-1 renal
CCRF-CEM leukemia = tested on: CCRF-CEM leukemia
COLO 205 colon = tested on: COLO 205 colon
DU-145 prostate = tested on: DU-145 prostate
EKVX NSCLC = tested on: EKVX NSCLC
HCC-2998 colon = tested on: HCC-2998 colon
HCT-116 colon = tested on: HCT-116 colon
HCT-15 colon = tested on: HCT-15 colon
HL-60(TB) leukemia = tested on: HL-60(TB) leukemia
HOP-62 NSCLC = tested on: HOP-62 NSCLC
HOP-92 NSCLC = tested on: HOP-92 NSCLC
HS 578T breast = tested on: HS 578T breast
HT29 colon = tested on: HT29 colon
IGROV1 ovarian = tested on: IGROV1 ovarian
K-562 leukemia = tested on: K-562 leukemia
KM12 colon = tested on: KM12 colon
LOX IMVI melanoma = tested on: LOX IMVI melanoma
M14 melanoma = tested on: M14 melanoma
MALME-3M melanoma = tested on: MALME-3M melanoma
MCF7 breast = tested on: MCF7 breast
MDA-MB-231 breast = tested on: MDA-MB-231 breast
MDA-MB-435 = tested on: MDA-MB-435
MOLT-4 leukemia = tested on: MOLT-4 leukemia
NCI-H226 lung = tested on: NCI-H226 lung
NCI-H23 lung = tested on: NCI-H23 lung
NCI-H460 lung = tested on: NCI-H460 lung
NCI-H522 lung = tested on: NCI-H522 lung
NCI/ADR-RES ovarian = tested on: NCI/ADR-RES ovarian
OVCAR-3 ovarian = tested on: OVCAR-3 ovarian
OVCAR-4 ovarian = tested on: OVCAR-4 ovarian
OVCAR-5 ovarian = tested on: OVCAR-5 ovarian
OVCAR-8 ovarian = tested on: OVCAR-8 ovarian
PC-3 prostate = tested on: PC-3 prostate
RPMI-8226 leukemia = tested on: RPMI-8226 leukemia
RXF 393 renal = tested on: RXF 393 renal
SF-268 CNS = tested on: SF-268 CNS
SF-295 CNS = tested on: SF-295 CNS
SF-539 CNS = tested on: SF-539 CNS
SK-MEL-2 melanoma = tested on: SK-MEL-2 melanoma
SK-MEL-28 melanoma = tested on: SK-MEL-28 melanoma
SK-MEL-5 melanoma = tested on: SK-MEL-5 melanoma
SK-OV-3 ovarian = tested on: SK-OV-3 ovarian
SN12C renal = tested on: SN12C renal
SNB-19 CNS = tested on: SNB-19 CNS
SNB-75 CNS = tested on: SNB-75 CNS
SR leukemia = tested on: SR leukemia
SW-620 colon = tested on: SW-620 colon
T-47D breast = tested on: T-47D breast
TK-10 renal = tested on: TK-10 renal
U251 CNS = tested on: U251 CNS
UACC-257 melanoma = tested on: UACC-257 melanoma
UACC-62 melanoma = tested on: UACC-62 melanoma
UO-31 renal = tested on: UO-31 renal

CCCCN(CCCC)CC(O)c1ccc(OCc2ccccc2)c2ccccc12 (stereo unspecified)
GI50 (786-0 renal): 2.56 µM | TGI (786-0 renal): 6.25 µM | GI50 (A498 renal): 3.41 µM | TGI (A498 renal): 14.5 µM | GI50 (A549 NSCLC): 8.45 µM | TGI (A549 NSCLC): 22.4 µM | GI50 (ACHN renal): 4.76 µM | TGI (ACHN renal): 18 µM | GI50 (BT-549 breast): 5.32 µM | TGI (BT-549 breast): 17.2 µM | GI50 (CAKI-1 renal): 1.98 µM | TGI (CAKI-1 renal): 10.9 µM | GI50 (CCRF-CEM leukemia): 3.35 µM | TGI (CCRF-CEM leukemia): 16.3 µM | GI50 (COLO 205 colon): 2.98 µM | TGI (COLO 205 colon): 12.1 µM | GI50 (DU-145 prostate): 8.63 µM | TGI (DU-145 prostate): 22.6 µM | GI50 (EKVX NSCLC): 5.66 µM | TGI (EKVX NSCLC): 20.2 µM | GI50 (HCC-2998 colon): 2.36 µM | TGI (HCC-2998 colon): 6.34 µM | GI50 (HCT-116 colon): 2.84 µM | TGI (HCT-116 colon): 11.7 µM | GI50 (HCT-15 colon): 2.58 µM | TGI (HCT-15 colon): 7.47 µM | GI50 (HL-60(TB) leukemia): 2.51 µM | TGI (HL-60(TB) leukemia): 8.25 µM | GI50 (HOP-62 NSCLC): 5.57 µM | TGI (HOP-62 NSCLC): 19.7 µM | GI50 (HOP-92 NSCLC): 1.87 µM | TGI (HOP-92 NSCLC): 6.27 µM | GI50 (HS 578T breast): 4.99 µM | TGI (HS 578T breast): 30.9 µM | GI50 (HT29 colon): 1.52 µM | TGI (HT29 colon): 4.55 µM | GI50 (IGROV1 ovarian): 1.96 µM | TGI (IGROV1 ovarian): 16.7 µM | GI50 (K-562 leukemia): 2.82 µM | TGI (K-562 leukemia): 10.4 µM | GI50 (KM12 colon): 3.4 µM | TGI (KM12 colon): 19.5 µM | GI50 (LOX IMVI melanoma): 1.94 µM | TGI (LOX IMVI melanoma): 4.78 µM | GI50 (M14 melanoma): 3.13 µM | TGI (M14 melanoma): 11.4 µM | GI50 (MALME-3M melanoma): 2.27 µM | TGI (MALME-3M melanoma): 7.09 µM | GI50 (MCF7 breast): 3.19 µM | TGI (MCF7 breast): 10.9 µM | GI50 (MDA-MB-231 breast): 2.28 µM | TGI (MDA-MB-231 breast): 7.92 µM | GI50 (MDA-MB-435): 3.17 µM | TGI (MDA-MB-435): 14 µM | GI50 (MOLT-4 leukemia): 3.54 µM | TGI (MOLT-4 leukemia): 16.5 µM | GI50 (NCI-H226 lung): 4.03 µM | TGI (NCI-H226 lung): 16.7 µM | GI50 (NCI-H23 lung): 3.01 µM | TGI (NCI-H23 lung): 13 µM | GI50 (NCI-H460 lung): 3.11 µM | TGI (NCI-H460 lung): 10.5 µM | GI50 (NCI-H522 lung): 1.72 µM | TGI (NCI-H522 lung): 4.37 µM | GI50 (NCI/ADR-RES ovarian): 3.74 µM | TGI (NCI/ADR-RES ovarian): 16 µM | GI50 (OVCAR-3 ovarian): 4.9 µM | TGI (OVCAR-3 ovarian): 18.3 µM | GI50 (OVCAR-4 ovarian): 6.22 µM | TGI (OVCAR-4 ovarian): 17.4 µM | GI50 (OVCAR-5 ovarian): 3.86 µM | TGI (OVCAR-5 ovarian): 16.2 µM | GI50 (OVCAR-8 ovarian): 11 µM | TGI (OVCAR-8 ovarian): 24.4 µM | GI50 (PC-3 prostate): 2.9 µM | TGI (PC-3 prostate): 15.6 µM | GI50 (RPMI-8226 leukemia): 2.22 µM | TGI (RPMI-8226 leukemia): 5.81 µM | GI50 (RXF 393 renal): 2.39 µM | TGI (RXF 393 renal): 4.93 µM | GI50 (SF-268 CNS): 7.07 µM | TGI (SF-268 CNS): 24.2 µM | GI50 (SF-295 CNS): 3.13 µM | TGI (SF-295 CNS): 11.6 µM | GI50 (SF-539 CNS): 5.09 µM | TGI (SF-539 CNS): 17 µM | GI50 (SK-MEL-2 melanoma): 3.39 µM | TGI (SK-MEL-2 melanoma): 12 µM | GI50 (SK-MEL-28 melanoma): 6.08 µM | TGI (SK-MEL-28 melanoma): 18.8 µM | GI50 (SK-MEL-5 melanoma): 1.88 µM | TGI (SK-MEL-5 melanoma): 3.69 µM | GI50 (SK-OV-3 ovarian): 8.31 µM | TGI (SK-OV-3 ovarian): 22.7 µM | GI50 (SN12C renal): 3.25 µM | TGI (SN12C renal): 14.9 µM | GI50 (SNB-19 CNS): 3.79 µM | TGI (SNB-19 CNS): 16.3 µM | GI50 (SNB-75 CNS): 3.6 µM | TGI (SNB-75 CNS): 15.8 µM | GI50 (SR leukemia): 2.75 µM | TGI (SR leukemia): 8.4 µM | GI50 (SW-620 colon): 3.32 µM | TGI (SW-620 colon): 14.5 µM | GI50 (T-47D breast): 3.74 µM | TGI (T-47D breast): 14.9 µM | GI50 (TK-10 renal): 2.15 µM | TGI (TK-10 renal): 5.24 µM | GI50 (U251 CNS): 4.88 µM | TGI (U251 CNS): 17.1 µM | GI50 (UACC-257 melanoma): 5.21 µM | TGI (UACC-257 melanoma): 17.2 µM | GI50 (UACC-62 melanoma): 2.33 µM | TGI (UACC-62 melanoma): 11.2 µM | GI50 (UO-31 renal): 0.974 µM | TGI (UO-31 renal): 7.13 µM
